Measured values published in US8628938B2, “Polynucleotide encoding UDP-glucuronyl transferase” (Suntory Holdings Limited, priority 2007, dated 2014).
Each block holds one molecule with its values, some of them ahead of it.

Tests used:
PfUGT50 = assay: UDP-glucuronosyltransferase activity assay (HPLC) with recombinant PfUGT50; type: biochemical, Perilla frutescens; settings: 100 μM glycosyl acceptor substrate, 2 mM UDP-glucuronic acid, pH 7.5, 30° C., 30 minutes
Description: (§1) Escherichia coli BL21 (DE3) was transformed with each plasmid obtained in 4-(1) above. The transformant obtained was shake cultured overnight at 37° C. in 4 ml of LB medium (10 g/l tryptone, 5 g/l yeast extract, 1 g/l NaCl) supplemented with 50 μg/ml of ampicillin. The culture broth, 4 ml, which reached the stationary phase, was inoculated into 80 ml of the medium with the same composition, followed by shake culture at 37° C. When the cell turbidity (OD600) reached approximately 0.5, 0.4 mM IPTG (isopropyl-β-thiogalactopyranoside) in a final concentration was added to the medium, followed by shake culture at 22° C. for 20 hours. All of the subsequent procedures were performed at 4° C. The transformants cultured were centrifuged (7,000×g, 15 mins.) to collect the cells, and 2 ml/g cell of Buffer S (20 mM sodium phosphate buffer (pH 7.4), 20 mM imidazole, 0.5 M NaCl, 14 mM β-mercaptoethanol) was added to the cells for suspension. Subsequently, ultrasonication was performed (15 secs.×8) followed by centrifugation (15,000×g, 10 mins.). To the supernatant obtained, 0.12% (w/v) polyethyleneimine in a final concentration was added to […], which was then allowed to stand for 30 minutes. The mixture was centrifuged (15,000×g, 10 mins.) and the supernatant was recovered as a crude enzyme solution. The crude enzyme solution was applied to His SpinTrap (GE Healthcare), which had been equilibrated with Buffer S, and centrifuged (70×g, 30 secs.). After washing with 600 μl of Buffer S, the protein bound to the column was stepwise eluted with 600 μl each of Buffer S containing 100, 200 and 500 mM imidazole. The buffer in each fraction eluted was replaced by 20 mM potassium phosphate buffer (pH 7.5) containing 14 mM β-mercaptoethanol, using Microcon YM-30 (Amicon). […] These fractions were mixed and used for analysis.
(§2) Standard reaction conditions are as follows. A reaction solution (2 mM UDP-glucuronic acid, 100 μM glycosyl acceptor substrate, 50 mM potassium phosphate buffer (pH 7.5), enzyme solution), 50 μl, was prepared and the enzyme solution was added to initiate the reaction at 30° C. for 30 minutes. The reaction was stopped by adding 50 μl of 0.5% TFA in CH3CN and provided for HPLC analysis. The conditions for HPLC are as follows: column, Develosil C30-UG-5 (4.6×150 mm); eluant A, 0.1% TFA/H2O; eluant B, 0.08% TFA/90% CH3CN; conditions A for elution (except for aurone, catechin, coumarine and phenylpropanoid), 0 min/5% B→18 min/100% eluant B'18.1 min/5% B→25 min/5% B; conditions B for elution (aurone, catechin, coumarine and phenylpropanoid), 0 min/5% B→20 min/50% eluant B→20.5 min/5% B→25 min/5% B; flow rate, 1 ml/min; detection wavelength: 280 and 350 nm.

S1UGT = assay: UDP-glucuronosyltransferase activity assay (HPLC) with recombinant S1UGT; type: biochemical, Scutellaria laeteviolacea v. yakusimensis; settings: 100 μM glycosyl acceptor substrate, 2 mM UDP-glucuronic acid, pH 7.5, 30° C., 30 minutes
Description: as §1, §2

AmUGTcg10 = assay: UDP-glucuronosyltransferase activity assay (HPLC) with recombinant AmUGTcg10; type: biochemical, Antirrhinum majus; settings: 100 μM glycosyl acceptor substrate, 2 mM UDP-glucuronic acid, pH 7.5, 30° C., 30 minutes
Description: as §1, §2

SiUGT23 = assay: UDP-glucuronosyltransferase activity assay (HPLC) with recombinant SiUGT23; type: biochemical, Sesamum indicum; settings: 100 μM glycosyl acceptor substrate, 2 mM UDP-glucuronic acid, pH 7.5, 30° C., 30 minutes
Description: as §2
cDNA containing full-length ORF of SiUGT23 derived from Sesamum indicum was amplified by a gene-specific primer set (SEQ ID NOs: 24 and 25). cDNA synthesized using total RNA extracted from sesame seeds was used as a template. SiUGT23 was incorporated into Escherichia coli expression vector as in UGT of Perilla frutescens, Scutellaria laeteviolacea v. yakusimensis and Antirrhinum majus in EXAMPLE 1 and recombinant SiUGT23 protein was expressed in the same way to assay the enzyme activity.

Sb7GAT = settings: enzyme purified from Scutellaria baicalensis; Nagashima et al. 2000; cited from earlier work
[1] = Analysis of pH and temperature characteristics of the recombinant enzymes; type: biochemical; settings: for reaction optimum temperature: activity assay for 30 minutes, reaction temperature 10 to 55° C.; for activity in an acidic region: reaction pH dependency
Description: Temperature stability was analyzed as follows. An enzyme solution was treated at 15 to 55° C. for an hour and then cooled to 4° C. Using the sample cooled, the residual activity was determined under standard reaction conditions. After 167 mM final concentration of a buffer solution (pH 4, 4.5, 5, Acetate-NaOH; pH 5.5, 6, 6.5, 7, 7.5, NaH2PO4-NaOH; pH 8, 8.5, 9, Tris-HCl) was added to the enzyme solution, the mixture was treated at 4° C. for an hour and then 500 mM final concentration of potassium phosphate buffer (pH 7.5) was added thereto. Using the sample treated, the residual activity was determined under standard reaction conditions. The reaction was performed under standard reaction conditions where the reaction temperature was set at 10 to 55° C. to analyze the reaction temperature dependency. Reaction pH dependency was analyzed under standard reaction conditions using a buffer solution (pH 4, 4.5, 5, Acetate-NaOH; pH 5.5, 6, 6.5, 7, 7.5, NaH2PO4—NaOH; pH 8, 8.5, 9, Tris-HCl) in place of potassium phosphate buffer (pH 7.5). […] PfUGT50 was stable at 30° C. or lower (an hour, pH 7.5) and the reaction optimum temperature was 30° C. in the activity assay for 30 minutes. […] This enzyme was stable at 40° C. or lower (an hour, pH 7.5) and the reaction optimum temperature was 35° C. in the activity assay for 30 minutes. […] This enzyme was stable at 30° C. or lower (an hour, pH 7.5) and the reaction optimum temperature was 45° C. in the activity assay for 30 minutes. These properties were similar to known GT involved in plant secondary metabolism.

B1: PfUGT50: UDP-glucuronosyltransferase having the amino acid sequence of SEQ ID NO: 5, derived from Perilla frutescens a red-leaf variety (protein, listed as Perilla frutescens)
chain: MEGVILLYSSAEHLNSMLLLATFIAKHHPSIPITILSSADYSAAASVSTLPSITYRRLPPVAIPPDSIKNPVEAFFEIPRLQNPNLRVALEEISQKTRIRAFVIDFFCNSAFEVSTSLSIPTYFYVSTGSAGVCIFLYFPTTDETVATDIGDLRDFLEFPGSPIIHSSDLPQLTFFRRSNVFKHMLDTSKNMQKSSGILTNGFDAMEFRAKEALTNGLCVPNGPTPPVYLVGPLVAGSNAKKDHECLLWLDRQPSKSVVFLCFGRRGLFSGKQLREMAVALERSGYRFLWSVRNPPENRSPAEDPDLDELLPEGFLERTKDIGFVVKSWAPQKEVLSHDAVAGFVTHCGRSSILEALVNGKPMIGWPMYAEQRMNKVFMVDEMKVALPLEEEEDGFVTAVELEKRLRQLMESKTGRDVRHRVAEMKAAATAAMGENGSAVVALRKFIDSVTRD
reaction optimum temperature [1]: 30 °C
activity in an acidic region [1]: little activity

B2: AmUGTcg10: UDP-glucuronosyltransferase having the amino acid sequence of SEQ ID NO: 13, derived from Antirrhinum majus (protein, listed as Antirrhinum majus)
chain: MEDTIVLYASAEHLNSMLLLGKLINKHHPTISVAIISTAPNAAASSVADVAAISYQQLKPATLPSDLTKNPIELFFEIPRLHNPNLLEALEELSLKSKVRAFVIDFFCNPAFEVSTSLNIPTYFYVSSGAFGLCGFLHFPTIDETVEKDIGELNDILEIPGCPPVLSSDFPKGMFFRKSNTYKHFLDTAKNMRRAKGIVVNAFDAMEFRAKEALVNNLCVPNSPTPPVFLVGPLVGASTTTKTTNEQHECLKWLDVQPDRSVIFLCFGRRGLFSADQLKEIAIGLENSGHRFLWSVRCPPSKPNSYNTDPDLDELLPEGFLSRTETRGFVIKSWAPQKEVLSHGAVGGFVTHCGRSSILEAVSFGVPMIGWPIYAEQRMNRVFMVEEMKVALQLDEVEEGFVAAVELEKRVKELMDSKNGRAVRQRVKEMKVAAEVAVEKGGSSVVALQRFVDMVVS
reaction optimum temperature [1]: 45 °C
activity in an acidic region [1]: little activity

B3: S1UGT: UDP-glucuronosyltransferase having the amino acid sequence of SEQ ID NO: 11, derived from Scutellaria laeteviolacea v. yakusimensis (protein, listed as Scutellaria sp.)
chain: MEDTIVIYTTPEHLNTMAVLAKFISKHHPSVPIILISTAAESAAASIAAVPSITYHRLPLPEIPPSLTKDRVELFFELPRLSNPNLRLALQEISQKARIRAFVIDFFCNAAFEVSTSLSIPTFYYFSSGSPTATLVLHFQTLDETIPGDLKDLDDFVEIPGLPPIYSLDIPVALLTRQSLVYQSSVDISKNLRKSAGFLVNGFDALEFRAKEAIVNGLCVPNGPTPPVYFIGPLVGDVDAKAGGEEHECLRWLDTQPSKSVIFLCFGRRGVFSAEQLKETAVALENSGHRFLWSVRNPPEIMKNSDEPDLDELLPEGFLERTKDRGFVIKSWAPQKEVLSHDSVGGFVTHCGRSSISEGVWFGVPMIGWPVDAEQKLNRTVLVEEMQVALPMEEAEGGFVTAAELEKRVRELMESKVGKAVRQRVGELKCSARAAVTGNGSSLSDFKKFLLATRD
reaction optimum temperature [1]: 35 °C
temperature at which the enzyme was stable (residual activity) ([1]; an hour, pH 7.5, treated at 15 to 55° C.): ≤ 40 °C
activity in an acidic region [1]: little activity

Second part, led by results:

relative activity to each substrate, taking the activity to scutellarein as 100% (PfUGT50): 41%
relative activity to each substrate, taking the activity to scutellarein as 100% (S1UGT): 0.6%
relative activity to each substrate, taking the activity to scutellarein as 100% (AmUGTcg10): 34%
relative activity to each substrate, taking the activity to scutellarein as 100% (SiUGT23): 29%
Molecule: O=c1cc(-c2ccc(O)c(O)c2)oc2cc(O)cc(O)c12 [luteolin]
action of Sb7GAT on the substrate (Sb7GAT): does not act

relative activity to each substrate, taking the activity to scutellarein as 100% (PfUGT50): 73%
relative activity to each substrate, taking the activity to scutellarein as 100% (S1UGT): 63%
relative activity to each substrate, taking the activity to scutellarein as 100% (AmUGTcg10): 22%
relative activity to each substrate, taking the activity to scutellarein as 100% (SiUGT23): 24%
Molecule: O=c1cc(-c2ccccc2)oc2cc(O)c(O)c(O)c12 [baicalein]
action of Sb7GAT on the substrate (Sb7GAT): acts

relative activity to each substrate, taking the activity to scutellarein as 100% (PfUGT50): 44%
relative activity to each substrate, taking the activity to scutellarein as 100% (S1UGT): 3%
relative activity to each substrate, taking the activity to scutellarein as 100% (AmUGTcg10): 40%
relative activity to each substrate, taking the activity to scutellarein as 100% (SiUGT23): 7%
Molecule: O=c1cc(-c2ccc(O)cc2)oc2cc(O)cc(O)c12 [apigenin]
action of Sb7GAT on the substrate (Sb7GAT): does not act

relative activity to each substrate, taking the activity to scutellarein as 100% (PfUGT50): 26%
relative activity to each substrate, taking the activity to scutellarein as 100% (S1UGT): 1%
relative activity to each substrate, taking the activity to scutellarein as 100% (AmUGTcg10): 4%
relative activity to each substrate, taking the activity to scutellarein as 100% (SiUGT23): 4%
Molecule: O=c1c(O)c(-c2ccc(O)c(O)c2)oc2cc(O)cc(O)c12 [quercetin]
action of Sb7GAT on the substrate (Sb7GAT): not
